According to the NIST ThermoML archive (doi:10.1021/acs.jced.9b00396):

Conditions: Liquid; for speed of sound: Frequency=3 MHz, Single path-length method; for mass density: Vibrating tube method

C[S+](C)[O-] [dimethyl sulfoxide]
Conditions	mass density, 293.15 K [kg/m3]	mass density, 298.15 K [kg/m3]	mass density, 313.15 K [kg/m3]	mass density, 333.15 K [kg/m3]	mass density, 353.15 K [kg/m3]	mass density, 373.15 K [kg/m3]	speed of sound, 293.15 K [m/s]	speed of sound, 298.15 K [m/s]	speed of sound, 313.15 K [m/s]	speed of sound, 333.15 K [m/s]
100 kPa	1100.4	1095.4	1080.3	1060.2	–	–	1502	1485	1435	1368
500 kPa	1100	1095	1080	1060	1040	1020	–	–	–	–
1000 kPa	1101	1096	1080	1060	1040	1020	–	–	–	–
2500 kPa	1102	1096	1081	1061	1042	1022	–	–	–	–
5000 kPa	1103	1098	1083	1063	1043	1024	–	–	–	–
7500 kPa	1104	1099	1084	1065	1045	–	–	–	–	–
10000 kPa	1106	1101	1086	1066	1047	–	–	–	–	–
12500 kPa	1107	1102	1087	1068	1049	–	–	–	–	–
15000 kPa	1108	1103	1089	1070	1050	–	–	–	–	–
17500 kPa	1110	1105	1090	1071	1052	–	–	–	–	–
20000 kPa	1111	1106	1092	1073	1054	–	–	–	–	–
22500 kPa	1112	1107	1093	1074	1055	–	–	–	–	–
25000 kPa	1114	1109	1095	1076	1057	–	–	–	–	–
27500 kPa	1115	1110	1096	1077	1059	–	–	–	–	–
30000 kPa	1116	1111	1097	1079	1060	–	–	–	–	–
32500 kPa	1117	1113	1099	1080	1062	–	–	–	–	–
35000 kPa	1119	1114	1100	1082	1063	–	–	–	–	–
37500 kPa	1120	1115	1101	1083	1065	–	–	–	–	–
